Data as given in patent publication US12559506B2, “Indazole based compounds and associated methods of use” (Arvinas Operations, Inc., priority 2021, dated 2026).
Read-outs that look alike come from different tables or passages of the source.

Target: T1, LRRK2 (endogenous, HiBit tagged) (Homo sapiens, UniProt Q5S007)
T1 construct: endogenous in cells; host or cells: HEK293 cells with HiBit knock-in at the endogenous LRRK2 locus, stably expressing firefly luciferase
Assay: Endogenous LRRK2 degradation assay, endogenous gene C-terminally HiBit-tagged in HEK293 cells (Nano-Glo Dual Luciferase)
Type: cell-based
Method in brief: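 LRRK2-HiBit quantified via Nano-Glo Dual Luciferase in HEK293 knock-in cells co-expressing firefly luciferase, after 24 h exposure to compound (1 μM final top, 1:3, 11 points). Values normalised to DMSO median per plate and curve-fitted; Alamar Blue viability run alongside.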

[1] = endogenous HiBit-tagged LRRK2 in HEK293 cells, 24 hours treatment, read-out: Endogenous WT DC50
[2] = endogenous HiBit-tagged LRRK2 in HEK293 cells, 24 hours treatment, read-out: Endogenous WT Dmax
[3] = endogenous HiBit-tagged LRRK2 in HEK293 cells, 24 hours treatment, read-out: **Endogenous WT Dmax (%)
[4] = endogenous HiBit-tagged LRRK2 in HEK293 cells, 24 hours treatment, read-out: *Endogenous WT DC50
[5] = endogenous HiBit-tagged LRRK2, HEK293 cells, 24 hours, read-out: **Endogenous WT Dmax (%)
[6] = endogenous HiBit-tagged LRRK2, HEK293 cells, 24 hours, read-out: *Endogenous WT DC50

T1 sequence (Q5S007 whole entry): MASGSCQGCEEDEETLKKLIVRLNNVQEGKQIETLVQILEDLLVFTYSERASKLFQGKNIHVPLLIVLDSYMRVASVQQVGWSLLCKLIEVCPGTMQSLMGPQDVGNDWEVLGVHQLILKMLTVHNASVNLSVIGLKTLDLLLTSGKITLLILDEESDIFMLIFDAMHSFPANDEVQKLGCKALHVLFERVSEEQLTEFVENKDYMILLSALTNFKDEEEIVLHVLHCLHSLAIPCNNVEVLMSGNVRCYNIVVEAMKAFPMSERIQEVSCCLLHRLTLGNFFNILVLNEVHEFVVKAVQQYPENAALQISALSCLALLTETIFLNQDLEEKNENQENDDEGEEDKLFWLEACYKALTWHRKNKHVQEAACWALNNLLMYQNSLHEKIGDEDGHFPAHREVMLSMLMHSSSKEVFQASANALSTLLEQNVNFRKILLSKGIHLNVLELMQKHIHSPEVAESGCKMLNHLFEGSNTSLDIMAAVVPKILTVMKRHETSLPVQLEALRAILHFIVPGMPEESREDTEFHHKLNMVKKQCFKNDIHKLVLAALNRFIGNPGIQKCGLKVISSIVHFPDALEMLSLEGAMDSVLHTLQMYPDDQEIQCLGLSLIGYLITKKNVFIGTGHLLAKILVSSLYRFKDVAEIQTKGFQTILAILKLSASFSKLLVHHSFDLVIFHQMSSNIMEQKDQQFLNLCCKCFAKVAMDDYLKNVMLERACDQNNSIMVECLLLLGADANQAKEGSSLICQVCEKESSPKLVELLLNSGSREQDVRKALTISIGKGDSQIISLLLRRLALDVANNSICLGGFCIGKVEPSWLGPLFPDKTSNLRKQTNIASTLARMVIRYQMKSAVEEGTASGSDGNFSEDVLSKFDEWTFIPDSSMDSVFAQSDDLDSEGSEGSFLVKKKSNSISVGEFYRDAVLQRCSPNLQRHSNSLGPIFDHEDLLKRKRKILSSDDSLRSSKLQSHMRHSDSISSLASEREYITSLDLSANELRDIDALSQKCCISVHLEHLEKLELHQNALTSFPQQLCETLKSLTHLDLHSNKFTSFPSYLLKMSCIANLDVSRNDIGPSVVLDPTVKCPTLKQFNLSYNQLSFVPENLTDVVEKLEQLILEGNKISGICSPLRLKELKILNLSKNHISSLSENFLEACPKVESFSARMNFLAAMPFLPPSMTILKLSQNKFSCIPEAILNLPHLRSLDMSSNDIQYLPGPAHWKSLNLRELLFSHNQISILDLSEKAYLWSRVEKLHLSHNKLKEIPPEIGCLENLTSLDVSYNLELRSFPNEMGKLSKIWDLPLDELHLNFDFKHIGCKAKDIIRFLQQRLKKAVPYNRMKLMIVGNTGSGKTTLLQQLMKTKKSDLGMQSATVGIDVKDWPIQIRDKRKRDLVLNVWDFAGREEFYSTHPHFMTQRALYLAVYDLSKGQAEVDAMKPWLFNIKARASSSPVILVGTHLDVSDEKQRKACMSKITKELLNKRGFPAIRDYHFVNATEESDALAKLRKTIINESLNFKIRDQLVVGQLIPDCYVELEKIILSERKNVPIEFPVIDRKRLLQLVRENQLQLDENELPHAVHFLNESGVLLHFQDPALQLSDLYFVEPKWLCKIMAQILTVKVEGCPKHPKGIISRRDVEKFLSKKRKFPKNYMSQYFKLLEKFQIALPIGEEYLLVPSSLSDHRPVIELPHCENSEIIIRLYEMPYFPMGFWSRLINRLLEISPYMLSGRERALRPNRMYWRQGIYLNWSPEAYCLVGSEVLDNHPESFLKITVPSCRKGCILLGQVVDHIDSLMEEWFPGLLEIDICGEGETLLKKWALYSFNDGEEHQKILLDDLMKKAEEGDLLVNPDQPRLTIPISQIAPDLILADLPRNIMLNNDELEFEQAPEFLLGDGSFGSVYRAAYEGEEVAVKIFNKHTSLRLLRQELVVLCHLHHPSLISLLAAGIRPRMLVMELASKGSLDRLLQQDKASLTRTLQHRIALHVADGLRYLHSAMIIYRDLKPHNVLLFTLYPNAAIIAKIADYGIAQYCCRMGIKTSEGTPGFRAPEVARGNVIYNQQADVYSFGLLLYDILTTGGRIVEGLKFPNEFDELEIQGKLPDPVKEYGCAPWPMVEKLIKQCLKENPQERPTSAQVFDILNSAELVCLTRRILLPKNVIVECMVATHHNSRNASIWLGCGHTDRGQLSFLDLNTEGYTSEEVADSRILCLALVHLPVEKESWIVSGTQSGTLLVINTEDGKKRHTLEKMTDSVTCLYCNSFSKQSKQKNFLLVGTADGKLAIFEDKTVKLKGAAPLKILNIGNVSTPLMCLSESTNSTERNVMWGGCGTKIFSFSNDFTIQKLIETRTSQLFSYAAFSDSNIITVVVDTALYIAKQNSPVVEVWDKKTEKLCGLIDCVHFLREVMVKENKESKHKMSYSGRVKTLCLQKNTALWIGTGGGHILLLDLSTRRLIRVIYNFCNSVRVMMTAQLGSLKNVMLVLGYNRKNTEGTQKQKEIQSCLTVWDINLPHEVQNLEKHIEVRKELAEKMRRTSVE

| SMILES | DC50 [1] [nM] | Dmax [2] [%] | other results |
| --- | --- | --- | --- |
| COc1c(N2CCC(O[C@H]3CC[C@H](CN4CCN(c5cc(-c6n[nH]c7ccc(OC8(C)CC8)cc67)nc(C)n5)CC4)CC3)CC2)ccc2c1CN(C1CCC(=O)NC1=O)C2=O (some centres unmarked) [Compound 367, 3-[4-methoxy-1-oxo-5-(4-{[(1r,4r)-4-[(4-{2-methyl-6-[5-(1-methylcyclopropoxy)-1H-indazol-3-yl]pyrimidin-4-yl}piperazin-1-yl)methyl]cyclohexyl]oxy}piperidin-1-yl)-2,3-dihydro-1H-isoindol-2-yl]piperidine-2,6-dione] | < 10 | 50 to 70 |  |
| C[C@H]1CN(CC2CCN(c3ccc4c(c3F)CN(C3CCC(=O)NC3=O)C4=O)CC2)CCN1CC1CCN(c2cc(-c3n[nH]c4ccc(OC5(C)CC5)cc34)ncn2)CC1 (stereo partly drawn) [Compound 221, 3-[4-fluoro-5-(4-{[(3S)-3-methyl-4-[(1-{6-[5-(1-methylcyclopropoxy)-1H-indazol-3-yl]pyrimidin-4-yl}piperidin-4-yl)methyl]piperazin-1-yl]methyl}piperidin-1-yl)-1-oxo-2,3-dihydro-1H-isoindol-2-yl]piperidine-2,6-dione] | < 10 | 50 to 70 |  |
| COc1c(N2CCC(CN3CCN(C[C@H]4CCN(c5cc(-c6n[nH]c7ccc(OC8(C)CC8)cc67)ncn5)C4)CC3)CC2)ccc2c1CN(C1CCC(=O)NC1=O)C2=O (stereo partly drawn) [Compound 303, 3-(4-methoxy-5-{4-[(4-{[(3R)-1-{6-[5-(1-methylcyclopropoxy)-1H-indazol-3-yl]pyrimidin-4-yl}pyrrolidin-3-yl]methyl}piperazin-1-yl)methyl]piperidin-1-yl}-1-oxo-2,3-dihydro-1H-isoindol-2-yl)piperidine-2,6-dione] |  |  | Dmax [3]: 50 to 70%; DC50 [4]: < 10 nM |
| CC1(Oc2ccc3n[nH]c(-c4cc(N5CCC(O[C@H]6C[C@H](N7CCC8(CC7)CN(c7ccc9c(c7F)CN(C7CCC(=O)NC7=O)C9=O)C8)C6)CC5)ncn4)c3c2)CC1 (some centres unmarked) [Compound 323, 3-(4-fluoro-1-oxo-5-{7-[(1r,3r)-3-[(1-{6-[5-(1-methylcyclopropoxy)-2H-indazol-3-yl]pyrimidin-4-yl}piperidin-4-yl)oxy]cyclobutyl]-2,7-diazaspiro[3.5]nonan-2-yl}-2,3-dihydro-1H-isoindol-2-yl)piperidine-2,6-dione] |  |  | Dmax [3]: 50 to 70%; DC50 [4]: < 10 nM |
| CC1(Oc2ccc3[nH]nc(-c4cc(N5CCN(C[C@H]6CC[C@H](OC7CCN(c8ccc9c(c8F)CN(C8CCC(=O)NC8=O)C9=O)CC7)CC6)CC5(C)C)ncn4)c3c2)CC1 (some centres unmarked) [Compound 383, 3-(5-(4-(((1r,4r)-4-((3,3-dimethyl-4-(6-(5-(1-methylcyclopropoxy)-1H-indazol-3-yl)pyrimidin-4-yl)piperazin-1-yl)methyl)cyclohexyl)oxy)piperidin-1-yl)-4-fluoro-1-oxoisoindolin-2-yl)piperidine-2,6-dione] | 50 to 100 | < 50 |  |
| COc1c(C2CCN([C@H]3C[C@H](OC4CCN(c5cc(-c6[nH]nc7ccc(OC8(C)CC8)cc67)ncn5)CC4)C3)CC2)ccc2c1CN(C1CCC(=O)NC1=O)C2=O (some centres unmarked) [Compound 329, 3-(4-methoxy-1-oxo-5-{1-[(1r,3r)-3-[(1-{6-[5-(1-methylcyclopropoxy)-2H-indazol-3-yl]pyrimidin-4-yl}piperidin-4-yl)oxy]cyclobutyl]piperidin-4-yl}-2,3-dihydro-1H-isoindol-2-yl)piperidine-2,6-dione] |  |  | Dmax [3]: 50 to 70%; DC50 [4]: < 10 nM |
| CC1(Oc2cc3c(-c4cc(N5CCC(CN6CCC(F)(CN7CCN(c8ccc9c(c8F)CN(C8CCC(=O)NC8=O)C9=O)CC7)CC6)CC5)ncn4)n[nH]c3cc2F)CC1 (centres unmarked) [Compound 199, 3-{4-fluoro-5-[4-({4-fluoro-1-[(1-{6-[6-fluoro-5-(1-methylcyclopropoxy)-1H-indazol-3-yl]pyrimidin-4-yl}piperidin-4-yl)methyl]piperidin-4-yl}methyl)piperazin-1-yl]-1-oxo-2,3-dihydro-1H-isoindol-2-yl}piperidine-2,6-dione] |  |  | Dmax [5]: ≥ 70%; DC50 [6]: < 10 nM |
| C[C@H]1CN(c2cc(-c3n[nH]c4ccc(OC5(C)CC5)cc34)ncn2)CCN1CCN1CCC2(CN(c3ccc4c(c3F)CN(C3CCC(=O)NC3=O)C4=O)C2)C(F)(F)C1 (stereo partly drawn) [Compound 317, 3-[5-(5,5-difluoro-7-{2-[(2S)-2-methyl-4-{6-[5-(1-methylcyclopropoxy)-1H-indazol-3-yl]pyrimidin-4-yl}piperazin-1-yl]ethyl}-2,7-diazaspiro[3.5]nonan-2-yl)-4-fluoro-1-oxo-2,3-dihydro-1H-isoindol-2-yl]piperidine-2,6-dione] |  |  | Dmax [3]: 50 to 70%; DC50 [4]: < 10 nM |
| CC1(Oc2cc3c(-c4cc(N5CCC(CN6CCC(F)(CN7CCN(c8cc9c(cc8F)C(=O)N(C8CCC(=O)NC8=O)C9)CC7)CC6)CC5)ncn4)[nH]nc3cc2F)CC1 (centres unmarked) [Compound 193, 3-[6-fluoro-5-[4-[[4-fluoro-1-[[1-[6-[6-fluoro-5-(1-methylcyclopropoxy)-2H-indazol-3-yl]pyrimidin-4-yl]-4-piperidyl]methyl]-4-piperidyl]methyl]piperazin-1-yl]-1-oxo-isoindolin-2-yl]piperidine-2,6-dione] |  |  | Dmax [5]: ≥ 70%; DC50 [6]: < 10 nM |
| CC1(Oc2ccc3n[nH]c(-c4cc(N5CCN(C[C@H]6CC[C@H](OC7CCN(c8cc9c(cc8F)C(=O)N(C8CCC(=O)NC8=O)C9)CC7)CC6)CC5)ncn4)c3c2)CC1 (some centres unmarked) [Compound 235, 3-[6-fluoro-5-[4-[4-[[4-[6-[5-(1-methylcyclopropoxy)-2H-indazol-3-yl]pyrimidin-4-yl]piperazin-1-yl]methyl]cyclohexoxy]-1-piperidyl]-1-oxo-isoindolin-2-yl]piperidine-2,6-dione] | < 10 | 50 to 70 |  |
| CC1(Oc2ccc3[nH]nc(-c4cc(N5CCN(C[C@H]6CC[C@H](OC7CCN(c8ccc9c(c8F)CN(C8CCC(=O)NC8=O)C9=O)CC7)CC6)C(C)(C)C5)ncn4)c3c2)CC1 (some centres unmarked) [Compound 381, 3-[4-fluoro-1-oxo-5-(4-{[(1r,4r)-4-[(2,2-dimethyl-4-{6-[5-(1-methylcyclopropoxy)-1H-indazol-3-yl]pyrimidin-4-yl}piperazin-1-yl)methyl]cyclohexyl]oxy}piperidin-1-yl)-2,3-dihydro-1H-isoindol-2-yl]piperidine-2,6-dione] | 10 to 50 | < 50 |  |
| C[C@H]1CN(c2cc(-c3n[nH]c4ccc(OC5(C)CC5)cc34)ncn2)CCN1CC1(F)CN(CC2CCN(c3ccc4c(c3)C(=O)N(C3CCC(=O)NC3=O)C4=O)CC2)C1 (stereo partly drawn) [Compound 123, 2-(2,6-dioxopiperidin-3-yl)-5-{4-[(3-fluoro-3-{[(2S)-2-methyl-4-{6-[5-(1-methylcyclopropoxy)-1H-indazol-3-yl]pyrimidin-4-yl}piperazin-1-yl]methyl}azetidin-1-yl)methyl]piperidin-1-yl}-2,3-dihydro-1H-isoindole-1,3-dione] |  |  | Dmax (endogenous HiBit-tagged LRRK2 in HEK293 cells, 24 hours, read-out: **Endogenous WT Dmax (%)): < 50%; DC50 (endogenous HiBit-tagged LRRK2 in HEK293 cells, 24 hours, read-out: *Endogenous WT DC50): < 10 nM |
| CC1(Oc2ccc3[nH]nc(-c4cc(N5CCC(CC6(F)CCN(CC7CCN(c8c(F)cc9c(c8F)CN(C8CCC(=O)NC8=O)C9=O)CC7)CC6)CC5)ncn4)c3c2)CC1 (centres unmarked) [Compound 223, 3-{4,6-difluoro-5-[4-({4-fluoro-4-[(1-{6-[5-(1-methylcyclopropoxy)-1H-indazol-3-yl]pyrimidin-4-yl}piperidin-4-yl)methyl]piperidin-1-yl}methyl)piperidin-1-yl]-1-oxo-2,3-dihydro-1H-isoindol-2-yl}piperidine-2,6-dione] | 10 to 50 | 50 to 70 |  |

Now from value to molecule, other results behind:

| DC50 [1] [nM] | Dmax [2] [%] | SMILES | other results |
| --- | --- | --- | --- |
| < 10 | 50 to 70 | CC1(Oc2ccc3[nH]nc(-c4cc(N5CCC(CN6C[C@@H]7C[C@H]6CN7CC6CCN(c7ccc8c(c7F)CN(C7CCC(=O)NC7=O)C8=O)CC6)CC5)ncn4)c3c2)CC1 (stereo partly drawn) [Compound 230, 3-[4-fluoro-5-(4-{[(1S,4S)-5-[(1-{6-[5-(1-methylcyclopropoxy)-1H-indazol-3-yl]pyrimidin-4-yl}piperidin-4-yl)methyl]-2,5-diazabicyclo[2.2.1]heptan-2-yl]methyl}piperidin-1-yl)-1-oxo-2,3-dihydro-1H-isoindol-2-yl]piperidine-2,6-dione] |  |
| < 10 | 50 to 70 | CC1(Oc2ccc3n[nH]c(-c4cc(N5CCC(CN6C[C@H]7C[C@@H]6CN7CC6CCN(c7ccc8c(c7F)CN(C7CCC(=O)NC7=O)C8=O)CC6)CC5)ncn4)c3c2)CC1 (stereo partly drawn) [Compound 226, 3-[4-fluoro-5-(4-{[(1R,4R)-5-[(1-{6-[5-(1-methylcyclopropoxy)-2H-indazol-3-yl]pyrimidin-4-yl}piperidin-4-yl)methyl]-2,5-diazabicyclo[2.2.1]heptan-2-yl]methyl}piperidin-1-yl)-1-oxo-2,3-dihydro-1H-isoindol-2-yl]piperidine-2,6-dione] |  |
| < 10 | ≥ 70 | COc1cc(N2CCC(CN3CCN(CC4CCN(c5cc(-c6n[nH]c7ccc(OC8(C)CC8)cc67)ncn5)CC4)CC3)CC2)cc2c1C(=O)N(C1CCC(=O)NC1=O)C2 (centres unmarked) [Compound 215, 3-[7-methoxy-5-[4-[[4-[[1-[6-[5-(1-methylcyclopropoxy)-1H-indazol-3-yl]pyrimidin-4-yl]-4-piperidyl]methyl]piperazin-1-yl]methyl]-1-piperidyl]-1-oxo-isoindolin-2-yl]piperidine-2,6-dione] |  |
